Experimental data published in ChEMBL document CHEMBL3822364, “Synthesis, characterization and antimicrobial activity of novel Schiff base tethered boronate esters of 1,2-O-isopropylidene-α-d-xylofuranose” (2016).
Converted amounts (≈) assume the structure as drawn. The source made the active and inactive calls. The calls are words filed in the database; no cut-off is given here.

Key:
Streptococcus mutans [1] = experiment: Antibacterial activity against Streptococcus mutans MTCC 497 assessed as zone of inhibition at 100 ug/well measured after 24 hrs by agar well diffusion method; assay type: functional; conditions: MTCC 497, 24 h, read-out: DIZ
Micrococcus luteus [2] = experiment: Antibacterial activity against Micrococcus luteus MTCC 106 assessed as zone of inhibition at 100 ug/well measured after 24 hrs by agar well diffusion method; assay type: functional; conditions: MTCC 106, 24 h, read-out: DIZ
Staphylococcus aureus [3] = experiment: Antibacterial activity against Staphylococcus aureus MTCC 3160 assessed as zone of inhibition at 100 ug/well measured after 24 hrs by agar well diffusion method; assay type: functional; conditions: MTCC 3160, 24 h, read-out: DIZ
Salmonella paratyphi [4] = experiment: Antibacterial activity against Salmonella paratyphi assessed as zone of inhibition at 100 ug/well measured after 24 hrs by agar well diffusion method; assay type: functional, Salmonella enterica subsp. enterica serovar Paratyphi A; conditions: Salmonella enterica, read-out: DIZ
Salmonella typhi [5] = experiment: Antibacterial activity against Salmonella typhi assessed as zone of inhibition at 100 ug/well measured after 24 hrs by agar well diffusion method; assay type: functional, Salmonella enterica subsp. enterica serovar Typhi; conditions: Salmonella enterica, read-out: DIZ
Klebsiella pneumoniae [6] = experiment: Antibacterial activity against Klebsiella pneumoniae MTCC 3384 assessed as zone of inhibition at 100 ug/well measured after 24 hrs by agar well diffusion method; assay type: functional; conditions: MTCC 3384, 24 h, read-out: DIZ
Candida albicans [7] = experiment: Antifungal activity against Candida albicans MTCC 3017 assessed as zone of inhibition at 100 ug/well measured after 48 hrs by agar well diffusion method; assay type: functional; conditions: MTCC 3017, 48 h, read-out: DIZ
Aspergillus fumigatus [8] = experiment: Antifungal activity against Aspergillus fumigatus MTCC 343 assessed as zone of inhibition at 100 ug/well measured after 48 hrs by agar well diffusion method; assay type: functional; conditions: MTCC 343, 48 h, read-out: DIZ
Streptococcus mutans [9] = experiment: Antibacterial activity against Streptococcus mutans MTCC 497 measured after 24 hrs by NCCL protocol based broth dilution method; assay type: functional; conditions: MTCC 497, 24 h
Micrococcus luteus [10] = experiment: Antibacterial activity against Micrococcus luteus MTCC 106 measured after 24 hrs by NCCL protocol based broth dilution method; assay type: functional; conditions: MTCC 106, 24 h
Staphylococcus aureus [11] = experiment: Antibacterial activity against Staphylococcus aureus MTCC 3160 measured after 24 hrs by NCCL protocol based broth dilution method; assay type: functional; conditions: MTCC 3160, 24 h
Salmonella paratyphi [12] = experiment: Antibacterial activity against Salmonella paratyphi measured after 24 hrs by NCCL protocol based broth dilution method; assay type: functional, Salmonella enterica subsp. enterica serovar Paratyphi A
Salmonella typhi [13] = experiment: Antibacterial activity against Salmonella typhi measured after 24 hrs by NCCL protocol based broth dilution method; assay type: functional, Salmonella enterica subsp. enterica serovar Typhi
Klebsiella pneumoniae [14] = experiment: Antibacterial activity against Klebsiella pneumoniae MTCC 3384 measured after 24 hrs by NCCL protocol based broth dilution method; assay type: functional
Candida albicans [15] = experiment: Antifungal activity against Candida albicans MTCC 3017 measured after 48 hrs by NCCL protocol based broth dilution method; assay type: functional; conditions: MTCC 3017, 48 h
Aspergillus fumigatus [16] = experiment: Antifungal activity against Aspergillus fumigatus MTCC 343 measured after 48 hrs by NCCL protocol based broth dilution method; assay type: functional

SMILES	zone of inhibition at 100 µg/disc (Streptococcus mutans [1])	zone of inhibition at 100 µg/disc (Micrococcus luteus [2])	zone of inhibition at 100 µg/disc (Staphylococcus aureus [3])	zone of inhibition at 100 µg/disc (Salmonella paratyphi [4])	zone of inhibition at 100 µg/disc (Salmonella typhi [5])	zone of inhibition at 100 µg/disc (Klebsiella pneumoniae [6])	zone of inhibition at 100 µg/disc (Candida albicans [7])	zone of inhibition at 100 µg/disc (Aspergillus fumigatus [8])	MIC (Streptococcus mutans [9])	MIC (Micrococcus luteus [10])	MIC (Staphylococcus aureus [11])	MIC (Salmonella paratyphi [12]; Salmonella enterica)	MIC (Salmonella typhi [13]; Salmonella enterica)	MIC (Klebsiella pneumoniae [14]; MTCC 3384, 24 h)	MIC (Candida albicans [15])	MIC (Aspergillus fumigatus [16]; MTCC 343, 48 h)	MIC (Salmonella paratyphi [12]; Salmonella enterica subsp. enterica serovar Paratyphi A)	MIC (Salmonella typhi [13]; Salmonella enterica subsp. enterica serovar Typhi)	MIC (Klebsiella pneumoniae [14])	MIC (Aspergillus fumigatus [16])
COc1ccc(/N=C/c2ccc(B3OC[C@H]4O[C@@H]5OC(C)(C)O[C@@H]5[C@H]4O3)cc2)cc1	12 mm	11 mm	11 mm	13 mm	19 mm	18 mm	17 mm	0 mm	250 µg/mL (≈ 611 µM)	250 µg/mL (≈ 611 µM)	500 µg/mL (≈ 1220 µM)	250 µg/mL (≈ 611 µM)	125 µg/mL (≈ 305 µM)	125 µg/mL (≈ 305 µM)	125 µg/mL (≈ 305 µM)	500 µg/mL (≈ 1220 µM)				
CC1(C)O[C@H]2O[C@@H]3COB(c4ccccc4C=O)O[C@@H]3[C@H]2O1	20 mm	18 mm	20 mm	21 mm	26 mm	27 mm	26 mm	25 mm	62.5 µg/mL (≈ 206 µM)	62.5 µg/mL (≈ 206 µM)	62.5 µg/mL (≈ 206 µM)	31.2 µg/mL (≈ 103 µM)	31.2 µg/mL (≈ 103 µM)	15.6 µg/mL (≈ 51.4 µM)	31.2 µg/mL (≈ 103 µM)	31.2 µg/mL (≈ 103 µM)				
C[C@@H]1C[C@@H]([C@H](O)CC2CC(=O)NC(=O)C2)C(=O)[C@@H](C)C1 [CYCLOHEXIMIDE]								25 mm								125 µg/mL (≈ 444 µM)				
COc1ccc(/N=C/c2cccc(B3OC[C@H]4O[C@@H]5OC(C)(C)O[C@@H]5[C@H]4O3)c2)cc1	17 mm	12 mm	0 mm	21 mm	25 mm	18 mm	16 mm	0 mm	125 µg/mL (≈ 305 µM)	250 µg/mL (≈ 611 µM)	500 µg/mL (≈ 1220 µM)	62.5 µg/mL (≈ 153 µM)	31.2 µg/mL (≈ 76.4 µM)	62.5 µg/mL (≈ 153 µM)	125 µg/mL (≈ 305 µM)	500 µg/mL (≈ 1220 µM)				
Cc1ccc(/N=C/c2cccc(B3OC[C@H]4O[C@@H]5OC(C)(C)O[C@@H]5[C@H]4O3)c2)cc1	13 mm	12 mm	13 mm	12 mm	20 mm	20 mm	17 mm	14 mm	250 µg/mL (≈ 636 µM)	250 µg/mL (≈ 636 µM)	125 µg/mL (≈ 318 µM)	500 µg/mL (≈ 1270 µM)	125 µg/mL (≈ 318 µM)	125 µg/mL (≈ 318 µM)	250 µg/mL (≈ 636 µM)	125 µg/mL (≈ 318 µM)				
CCOc1cccc(/C=N/c2cccc(B3OC[C@H]4O[C@@H]5OC(C)(C)O[C@@H]5[C@H]4O3)c2)c1O	16 mm	15 mm	0 mm	14 mm	24 mm	12 mm	18 mm	21 mm	125 µg/mL (≈ 285 µM)	125 µg/mL (≈ 285 µM)	250 µg/mL (≈ 569 µM)	250 µg/mL (≈ 569 µM)	31.2 µg/mL (≈ 71.1 µM)	125 µg/mL (≈ 285 µM)	62.5 µg/mL (≈ 142 µM)	62.5 µg/mL (≈ 142 µM)				
CC(C)c1ccc(/N=C/c2cccc(B3OC[C@H]4O[C@@H]5OC(C)(C)O[C@@H]5[C@H]4O3)c2)cc1	16 mm	12 mm	13 mm	21 mm	23 mm	16 mm	16 mm	0 mm	125 µg/mL (≈ 297 µM)	250 µg/mL (≈ 593 µM)	250 µg/mL (≈ 593 µM)	125 µg/mL (≈ 297 µM)	62.5 µg/mL (≈ 148 µM)	125 µg/mL (≈ 297 µM)	250 µg/mL (≈ 593 µM)	500 µg/mL (≈ 1190 µM)				
CC1(C)O[C@H]2O[C@@H]3COB(c4ccc(/C=N/c5ccc(F)cc5)cc4)O[C@@H]3[C@H]2O1	21 mm	15 mm	18 mm	22 mm	20 mm	21 mm	16 mm	0 mm	31.2 µg/mL (≈ 78.7 µM)	62.5 µg/mL (≈ 157 µM)	62.5 µg/mL (≈ 157 µM)	31.2 µg/mL (≈ 78.7 µM)	62.5 µg/mL (≈ 157 µM)	31.2 µg/mL (≈ 78.7 µM)	125 µg/mL (≈ 315 µM)	250 µg/mL (≈ 629 µM)				
CC1(C)O[C@H]2O[C@@H]3COB(c4cccc(/N=C/c5cc(Br)ccc5O)c4)O[C@@H]3[C@H]2O1	21 mm	22 mm	13 mm	14 mm	24 mm	21 mm	18 mm	0 mm	62.5 µg/mL (≈ 132 µM)	31.2 µg/mL (≈ 65.9 µM)	125 µg/mL (≈ 264 µM)	62.5 µg/mL (≈ 132 µM)	31.2 µg/mL (≈ 65.9 µM)	62.5 µg/mL (≈ 132 µM)	62.5 µg/mL (≈ 132 µM)	250 µg/mL (≈ 527 µM)				
CC1(C)O[C@H]2O[C@@H]3COB(c4ccc(C=O)cc4)O[C@@H]3[C@H]2O1	21 mm	12 mm	12 mm	21 mm	22 mm	20 mm	18 mm	0 mm	62.5 µg/mL (≈ 206 µM)	125 µg/mL (≈ 411 µM)	125 µg/mL (≈ 411 µM)	31.2 µg/mL (≈ 103 µM)	31.2 µg/mL (≈ 103 µM)	62.5 µg/mL (≈ 206 µM)	125 µg/mL (≈ 411 µM)	250 µg/mL (≈ 822 µM)				
CC1(C)O[C@H]2O[C@@H]3COC(c4ccc(/C=N\c5ccc(F)cc5)cc4)O[C@@H]3[C@H]2O1 (stereo partly drawn)	6 mm	0 mm	8 mm	0 mm	0 mm	0 mm	6 mm	0 mm	250 µg/mL (≈ 626 µM)	500 µg/mL (≈ 1250 µM)	500 µg/mL (≈ 1250 µM)				500 µg/mL (≈ 1250 µM)		inactive	inactive	inactive	inactive
CC1(C)O[C@H]2O[C@@H]3COB(c4cccc(/N=C/c5ccccc5O)c4)O[C@@H]3[C@H]2O1	20 mm	22 mm	13 mm	13 mm	22 mm	16 mm	14 mm	0 mm	62.5 µg/mL (≈ 158 µM)	62.5 µg/mL (≈ 158 µM)	250 µg/mL (≈ 633 µM)	250 µg/mL (≈ 633 µM)	62.5 µg/mL (≈ 158 µM)	125 µg/mL (≈ 316 µM)	125 µg/mL (≈ 316 µM)	500 µg/mL (≈ 1270 µM)				
CC1(C)O[C@H]2O[C@@H]3COB(c4ccc(/C=N/c5ccccc5)cc4)O[C@@H]3[C@H]2O1	21 mm	14 mm	16 mm	0 mm	20 mm	21 mm	11 mm	0 mm	62.5 µg/mL (≈ 165 µM)	250 µg/mL (≈ 659 µM)	125 µg/mL (≈ 330 µM)	500 µg/mL (≈ 1320 µM)	62.5 µg/mL (≈ 165 µM)	62.5 µg/mL (≈ 165 µM)	125 µg/mL (≈ 330 µM)	500 µg/mL (≈ 1320 µM)				
CN[C@@H]1[C@H](O[C@H]2[C@H](O[C@H]3[C@H](O)[C@@H](O)[C@H](N=C(N)N)[C@@H](O)[C@@H]3N=C(N)N)O[C@@H](C)[C@]2(O)C=O)O[C@@H](CO)[C@H](O)[C@H]1O.CN[C@@H]1[C@H](O[C@H]2[C@H](O[C@H]3[C@H](O)[C@@H](O)[C@H](N=C(N)N)[C@@H](O)[C@@H]3N=C(N)N)O[C@@H](C)[C@]2(O)C=O)O[C@@H](CO)[C@H](O)[C@H]1O.O=S(=O)(O)O.O=S(=O)(O)O.O=S(=O)(O)O [STREPTOMYCIN SULFATE]	26 mm	20 mm	26 mm	23 mm	25 mm	25 mm			31.2 µg/mL	31.2 µg/mL	15.6 µg/mL	15.6 µg/mL	31.2 µg/mL	31.2 µg/mL						
OC(Cn1cncn1)(Cn1cncn1)c1ccc(F)cc1F [FLUCONAZOLE]							18 mm								62.5 µg/mL (≈ 204 µM)					
